Test results taken from the NIST ThermoML archive (doi:10.1016/j.jct.2016.08.005).

Conditions: Liquid, Vibrating tube method

Cc1cccs1 [2-methylthiophene]
Conditions | mass density [kg/m3]
283.15 K, 100 kPa | 1030.98
283.15 K, 2000 kPa | 1032.44
283.15 K, 5000 kPa | 1034.69
283.15 K, 7000 kPa | 1036.18
283.15 K, 10000 kPa | 1038.39
283.15 K, 15000 kPa | 1041.92
283.15 K, 20000 kPa | 1045.36
283.15 K, 25000 kPa | 1048.69
283.15 K, 30000 kPa | 1051.93
283.15 K, 35000 kPa | 1055.07
283.15 K, 40000 kPa | 1058.12
283.15 K, 45000 kPa | 1061.09
283.15 K, 50000 kPa | 1063.97
283.15 K, 55000 kPa | 1066.8
283.15 K, 60000 kPa | 1069.53
283.15 K, 65000 kPa | 1072.21
288.15 K, 100 kPa | 1025.61
288.15 K, 2000 kPa | 1027.12
288.15 K, 5000 kPa | 1029.45
288.15 K, 7000 kPa | 1030.97
288.15 K, 10000 kPa | 1033.22
288.15 K, 15000 kPa | 1036.86
288.15 K, 20000 kPa | 1040.39
288.15 K, 25000 kPa | 1043.79
288.15 K, 30000 kPa | 1047.1
288.15 K, 35000 kPa | 1050.32
288.15 K, 40000 kPa | 1053.43
288.15 K, 45000 kPa | 1056.47
288.15 K, 50000 kPa | 1059.42
288.15 K, 55000 kPa | 1062.27
288.15 K, 60000 kPa | 1065.07
288.15 K, 65000 kPa | 1067.79
293.15 K, 100 kPa | 1020.2
293.15 K, 2000 kPa | 1021.76
293.15 K, 5000 kPa | 1024.16
293.15 K, 7000 kPa | 1025.73
293.15 K, 10000 kPa | 1028.04
293.15 K, 15000 kPa | 1031.77
293.15 K, 20000 kPa | 1035.39
293.15 K, 25000 kPa | 1038.88
293.15 K, 30000 kPa | 1042.27
293.15 K, 35000 kPa | 1045.56
293.15 K, 40000 kPa | 1048.68
293.15 K, 45000 kPa | 1051.85
293.15 K, 50000 kPa | 1054.87
293.15 K, 55000 kPa | 1057.79
293.15 K, 60000 kPa | 1060.64
293.15 K, 65000 kPa | 1063.42
298.15 K, 100 kPa | 1014.79
298.15 K, 2000 kPa | 1016.39
298.15 K, 5000 kPa | 1018.85
298.15 K, 7000 kPa | 1020.48
298.15 K, 10000 kPa | 1022.84
298.15 K, 15000 kPa | 1026.7
298.15 K, 20000 kPa | 1030.4
298.15 K, 25000 kPa | 1033.98
298.15 K, 30000 kPa | 1037.45
298.15 K, 35000 kPa | 1040.82
298.15 K, 40000 kPa | 1044.09
298.15 K, 45000 kPa | 1047.25
298.15 K, 50000 kPa | 1050.33
298.15 K, 55000 kPa | 1053.31
298.15 K, 60000 kPa | 1056.23
298.15 K, 65000 kPa | 1059.07
303.15 K, 100 kPa | 1009.39
303.15 K, 2000 kPa | 1011.03
303.15 K, 5000 kPa | 1013.57
303.15 K, 7000 kPa | 1015.23
303.15 K, 10000 kPa | 1017.69
303.15 K, 15000 kPa | 1021.62
303.15 K, 20000 kPa | 1025.42
303.15 K, 25000 kPa | 1029.11
303.15 K, 30000 kPa | 1032.66
303.15 K, 35000 kPa | 1036.1
303.15 K, 40000 kPa | 1039.44
303.15 K, 45000 kPa | 1042.68
303.15 K, 50000 kPa | 1045.81
303.15 K, 55000 kPa | 1048.89
303.15 K, 60000 kPa | 1051.84
303.15 K, 65000 kPa | 1054.72
308.15 K, 100 kPa | 1003.95
308.15 K, 2000 kPa | 1005.62
308.15 K, 5000 kPa | 1008.23
308.15 K, 7000 kPa | 1009.96
308.15 K, 10000 kPa | 1012.46
308.15 K, 15000 kPa | 1016.53
308.15 K, 20000 kPa | 1020.43
308.15 K, 25000 kPa | 1024.2
308.15 K, 30000 kPa | 1027.84
308.15 K, 35000 kPa | 1031.36
308.15 K, 40000 kPa | 1034.78
308.15 K, 45000 kPa | 1038.08
308.15 K, 50000 kPa | 1041.29
308.15 K, 55000 kPa | 1044.4
308.15 K, 60000 kPa | 1047.43
308.15 K, 65000 kPa | 1050.39
313.15 K, 100 kPa | 998.5
313.15 K, 2000 kPa | 1000.23
313.15 K, 5000 kPa | 1002.93
313.15 K, 7000 kPa | 1004.7
313.15 K, 10000 kPa | 1007.28
313.15 K, 15000 kPa | 1011.45
313.15 K, 20000 kPa | 1015.45
313.15 K, 25000 kPa | 1019.32
313.15 K, 30000 kPa | 1023.04
313.15 K, 35000 kPa | 1026.65
313.15 K, 40000 kPa | 1030.14
313.15 K, 45000 kPa | 1033.52
313.15 K, 50000 kPa | 1036.79
313.15 K, 55000 kPa | 1039.99
313.15 K, 60000 kPa | 1043.07
313.15 K, 65000 kPa | 1046.08
318.15 K, 100 kPa | 993.03
318.15 K, 2000 kPa | 994.81
318.15 K, 5000 kPa | 997.59
318.15 K, 7000 kPa | 999.4
318.15 K, 10000 kPa | 1002.05
318.15 K, 15000 kPa | 1006.33
318.15 K, 20000 kPa | 1010.45
318.15 K, 25000 kPa | 1014.42
318.15 K, 30000 kPa | 1018.23
318.15 K, 35000 kPa | 1021.93
318.15 K, 40000 kPa | 1025.49
318.15 K, 45000 kPa | 1028.94
318.15 K, 50000 kPa | 1032.3
318.15 K, 55000 kPa | 1035.54
318.15 K, 60000 kPa | 1038.69
318.15 K, 65000 kPa | 1041.75
323.15 K, 100 kPa | 987.55
323.15 K, 2000 kPa | 989.38
323.15 K, 5000 kPa | 992.24
323.15 K, 7000 kPa | 994.11
323.15 K, 10000 kPa | 996.84
323.15 K, 15000 kPa | 1001.25
323.15 K, 20000 kPa | 1005.47
323.15 K, 25000 kPa | 1009.52
323.15 K, 30000 kPa | 1013.45
323.15 K, 35000 kPa | 1017.21
323.15 K, 40000 kPa | 1020.87
323.15 K, 45000 kPa | 1024.41
323.15 K, 50000 kPa | 1027.81
323.15 K, 55000 kPa | 1031.14
323.15 K, 60000 kPa | 1034.36
323.15 K, 65000 kPa | 1037.48
328.15 K, 100 kPa | 982.01
328.15 K, 2000 kPa | 983.93
328.15 K, 5000 kPa | 986.87
328.15 K, 7000 kPa | 988.79
328.15 K, 10000 kPa | 991.61
328.15 K, 15000 kPa | 996.12
328.15 K, 20000 kPa | 1000.47
328.15 K, 25000 kPa | 1004.64
328.15 K, 30000 kPa | 1008.65
328.15 K, 35000 kPa | 1012.52
328.15 K, 40000 kPa | 1016.24
328.15 K, 45000 kPa | 1019.86
328.15 K, 50000 kPa | 1023.37
328.15 K, 55000 kPa | 1026.73
328.15 K, 60000 kPa | 1030.01
328.15 K, 65000 kPa | 1033.2
333.15 K, 100 kPa | 976.49
333.15 K, 2000 kPa | 978.46
333.15 K, 5000 kPa | 981.49
333.15 K, 7000 kPa | 983.47
333.15 K, 10000 kPa | 986.36
333.15 K, 15000 kPa | 991.02
333.15 K, 20000 kPa | 995.46
333.15 K, 25000 kPa | 999.74
333.15 K, 30000 kPa | 1003.86
333.15 K, 35000 kPa | 1007.82
333.15 K, 40000 kPa | 1011.63
333.15 K, 45000 kPa | 1015.34
333.15 K, 50000 kPa | 1018.9
333.15 K, 55000 kPa | 1022.36
333.15 K, 60000 kPa | 1025.71
333.15 K, 65000 kPa | 1028.94
338.15 K, 100 kPa | 970.87
338.15 K, 2000 kPa | 972.92
338.15 K, 5000 kPa | 976.06
338.15 K, 7000 kPa | 978.09
338.15 K, 10000 kPa | 981.08
338.15 K, 15000 kPa | 985.87
338.15 K, 20000 kPa | 990.45
338.15 K, 25000 kPa | 994.85
338.15 K, 30000 kPa | 999.06
338.15 K, 35000 kPa | 1003.09
338.15 K, 40000 kPa | 1007.02
338.15 K, 45000 kPa | 1010.79
338.15 K, 50000 kPa | 1014.44
338.15 K, 55000 kPa | 1017.97
338.15 K, 60000 kPa | 1021.38
338.15 K, 65000 kPa | 1024.7
